Our source for the melting point values is US7358263B2, “Fused bicyclic-substituted amines as histamine-3 receptor ligands” (Abbott Laboratories, priority 2006, dated 2008).

The melting point is the temperature, or range, at which the solid turns liquid.

As to `C[C@@H]1CCCN1CCc1nc2cc(-c3ccc(C#N)cc3)ccc2o1` [Example 24E, 4-{2-[2-(2-(R)-methyl-pyrrolidin-1-yl)-ethyl]-benzooxazol-5-yl}-benzonitrile], the melting point lay within 70 to 72 °C.
